Data set [1] deals with HR+, HER2− advanced or metastatic breast cancer. As to conditions: abemaciclib 150 mg BID in combination with fulvestrant; patients; cited from earlier work.
Data set [2] relates to Cancer cell lines that are resistant to palbociclib and tamoxifen. The experiment in a line: Geminin/Ki67 cell proliferation assay, sequential CDK4 and 6 inhibitor treatment. Type of data set: cell-based. Particulars: sequential treatment in combination with ET (fulvestrant or tamoxifen). The procedure:
(§1) Resistant breast cancer cells are prepared by treating breast cancer cell lines with amounts of a CDK4 and 6 inhibitor (either abemaciclib or palbociclib) in combination with 4-OH-tamoxifen (tamoxifen) for 120-144 h. The cells are sorted and screened for resistant cells, defined as geminin positive (GEM+), a marker of S/G2/M cell cycle accumulation. To confirm the resistant phenotype, cell lines are treated with tamoxifen plus the CDK4 and 6 inhibitor used to drive resistance (either abemaciclib or palbociclib). Resistant cancer cells generated by the above method are treated with abemaciclib in combination with an endocrine therapy (ET) comprising either fulvestrant or tamoxifen; or with palbociclib in combination with either fulvestrant or tamoxifen. Cell proliferation and viability are evaluated by Geminin/Ki67, annexin V, and colony formation assays. Mechanisms of resistance and the effects of sequential treatment of the CDK4 and 6 inhibitor in combination with either fulvestrant or tamoxifen are characterized by western blot and RNAseq analysis.

Data set [3] has the same test system. The experiment in a line: Colony formation assay, sequential CDK4 and 6 inhibitor treatment. Format: cell-based. As to conditions: sequential treatment in combination with ET (fulvestrant or tamoxifen). The procedure: as §1
The test system is the same in data set [4]. The experiment in a line: Annexin V assay, sequential CDK4 and 6 inhibitor treatment. Format: cell-based. Particulars: sequential treatment in combination with ET (fulvestrant or tamoxifen). On the procedure: as §1
Data set [5] deals with early breast cancer at high risk of recurrence. As to conditions: adjuvant setting; patients with early breast cancer at high risk of recurrence; cited from earlier work.
Data set [6] deals with palbociclib-resistant cells. The experiment in a line: Western blot analysis after sequential treatment. Format: cell-based. Particulars: in combination with ET. The procedure: as §1
For data set [7], the system named is Cancer cell lines that are resistant to palbociclib and tamoxifen. The experiment in a line: Characterization of effects of sequential treatment (proliferation, pRb signaling, androgen response). Type of data set: cell-based. As to conditions: sequential treatment in combination with ET. On the procedure: as §1
The subject of data set [8] is HR+, HER2− advanced or metastatic breast cancer. Type of data set: in vivo, human. Particulars: investigation arm: abemaciclib 150 mg PO BID and fulvestrant 500 mg IM; expected. The procedure: As detailed below, a clinical trial is conducted as a Phase 3, global, multicenter, randomized, double-blind, placebo-controlled study in participants with HR+, HER2− advanced or metastatic breast cancer. The study will enroll adults who experienced disease progression on a CDK4 and 6 inhibitor and an aromatase inhibitor (AI) therapy in the first-line setting (initial therapy for advanced or metastatic breast cancer), or recurrence on or after a CDK4 and 6 inhibitor with endocrine therapy (ET) in the adjuvant setting.
The trial will include approximately 350 participants that will be randomly assigned to one of two intervention arms that include an investigational arm A: abemaciclib and fulvestrant and a control arm B: placebo and fulvestrant. […]
The primary endpoint, PFS by investigator assessment, is defined as the time from randomization until the first occurrence of documented disease progression as determined by investigator assessment per RECIST 1.1, or death from any cause in the absence of documented progressive disease. […]

Data set [9] has as its system cell lines resistant to abemaciclib and tamoxifen. The experiment in a line: Cell proliferation and viability assays (Geminin/Ki67, annexin V, colony formation), sequential treatment. Format: cell-based. Particulars: sequential treatment in combination with ET. On the procedure: as §1
Data set [10] deals with abemaciclib-resistant cells. The experiment in a line: Western blot analysis after sequential treatment. Format: cell-based. As to conditions: in combination with ET. The procedure:
as §1

Data set [11] relates to abemaciclib-resistant cells. The experiment in a line: Characterization of effects of sequential treatment (proliferation, pRb signaling, androgen response). Format: cell-based. As to conditions: in combination with ET. The procedure: as §1

The values below come from patent US20240398832A1, “CDK4 AND 6 INHIBITOR IN COMBINATION WITH FULVESTRANT FOR THE TREATMENT OF HORMONE RECEPTOR-POSITIVE, HUMAN EPIDERMAL GROWTH FACTOR RECEPTOR 2-NEGATIVE ADVANCED OR METASTATIC BREAST CANCER IN PATIENTS PREVIOUSLY TREATED WITH A CDK4 AND 6 INHIBITOR” (Eli Lilly and Company, priority 2021, published 2024).

Regarding `CCN1CCN(Cc2ccc(Nc3ncc(F)c(-c4cc(F)c5nc(C)n(C(C)C)c5c4)n3)nc2)CC1` [abemaciclib, [5-(4-ethyl-piperazin-1-ylmethyl)-pyridin-2-yl]-[5-fluoro-4-(7-fluoro-3-isopropyl-2-methyl-3H-benzoimidazol-5-yl)-pyrimidin-2-yl]-amine], in [1], the “OS benefit compared to fulvestrant/placebo” value is on record as “clinically meaningful”, the “PFS benefit compared to fulvestrant/placebo” value was “clinically meaningful” and the safety profile entry is “manageable safety profile”. Besides, in data set [2], the “% GEM+” value was “decreased” and the Ki67 levels entry is listed as “decreased”. For the same molecule, in data set [3], the colony formation ability entry is given as “decreased”. In data set [4], the apoptosis entry is on record as “increased”. Moreover, in [5], the “distant relapse-free survival (DRFS)” value is reported as “significant improvement” and the “invasive disease-free survival (IDFS)” value is “significant improvement”. In addition, in data set [6], the “FOXMI, a regulator of senescence and apoptosis” value was “decrease”; the “cyclin A, a marker of mitosis” value was “decrease”. For the same molecule, in [7], the androgen response result is on record as “induction”, the pRb signaling entry is on record as “decreased” and the proliferation result is recorded as “decrease”. Besides, the disease progression result in data set [8] is “delay disease progression”.
As to `CC(=O)c1c(C)c2cnc(Nc3ccc(N4CCNCC4)cn3)nc2n(C2CCCC2)c1=O` [palbociclib, 6-acetyl-8-cyclopentyl-5-methyl-2-{[5-(piperazin-1-yl)pyridine-2-yl]amino}pyrido[2,3,-d]pyrimidin-7 (8H)-one], the “inhibition effects (% GEM+, colony formation ability, Ki67 levels, apoptosis)” value in data set [9] was “do not show similar inhibition effects”. Moreover, the “effects on FOXMI and cyclin A” value in data set [10] is “do not exhibit similar effects”. In [11], the “effects on proliferation, pRb signaling, or androgen response” value is “do not exhibit similar effects”.
